Experimental data as given in patent US20030180777A1, “Rapid identification of transcriptional regulatory domains” (priority 2002, published 2003).

Columns and labels:
Type in all cases: cell-based
[1] = target: T1, P2X7 (Mus musculus, UniProt Q9Z1M0); assay: BzATP-induced EtBr uptake in Neuro-2A cells by FACS
T1 construct: mouse Neuro-2A cells (expressing P2X7); endogenous in cells; host or cells: mouse Neuro-2A cells
T1 sequence (Q9Z1M0 1-595): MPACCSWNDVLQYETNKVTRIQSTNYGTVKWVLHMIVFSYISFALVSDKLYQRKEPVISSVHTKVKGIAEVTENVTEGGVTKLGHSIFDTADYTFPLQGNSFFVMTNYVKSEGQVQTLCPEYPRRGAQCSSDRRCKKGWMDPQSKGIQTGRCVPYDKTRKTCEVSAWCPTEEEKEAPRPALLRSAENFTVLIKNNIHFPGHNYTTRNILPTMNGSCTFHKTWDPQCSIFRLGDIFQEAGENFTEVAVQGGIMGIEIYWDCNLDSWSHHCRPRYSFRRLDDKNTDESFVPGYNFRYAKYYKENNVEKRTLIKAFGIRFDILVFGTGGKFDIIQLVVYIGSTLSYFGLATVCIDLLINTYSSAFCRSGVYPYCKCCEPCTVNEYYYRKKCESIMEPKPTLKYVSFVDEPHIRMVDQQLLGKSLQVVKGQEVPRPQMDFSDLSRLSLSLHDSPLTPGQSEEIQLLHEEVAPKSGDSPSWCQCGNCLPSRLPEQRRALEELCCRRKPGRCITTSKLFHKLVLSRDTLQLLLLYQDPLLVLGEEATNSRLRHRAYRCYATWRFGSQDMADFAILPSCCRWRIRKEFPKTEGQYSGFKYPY
Protocol: To test the suitability of the P2X7 gene as a reporter for high-throughput screening for repression domains, mouse Neuro-2A cells (expressing P2X7) were transiently transfected with a plasmid expressing a zinc finger DNA-binding domain targeted to the P2X7 gene (ZFP #5493) linked to a KOX1 repression domain. Control Neuro-2A cells were transfected with a vector lacking both library sequences and ZFP-encoding sequences (i.e., empty vector). Cells were treated for 10 minutes with different concentrations of BzATP (ranging from 0 to 1 mM), and EtBr was then added to a final concentration of 10 μM. After 20 minutes, cells were harvested by centrifugation, washed in PBS and analyzed by FACS.

[2] = target: T1, P2X7; assay: BzATP-induced death of Neuro-2A cells
Protocol: To test this selection method, Neuro-2A cells were transiently transfected with empty vector (see Example 3 supra) or with a plasmid expressing a KOX1 repressor domain linked to the P2X7-targeted zinc finger binding domain ZFP #5493. 48 hours after transfection, cells were detached from the plate with Trypsin-EDTA, collected by centrifugation and resuspended in HKS assay buffer (125 mM KC1, 1 mM EDTA, 5 mM glucose, 20 mM HEPES, pH 7.4 adjusted with KOH). Resuspended cells were mixed with BzATP (final concentrations ranging from 0 to 1 mM) and plated onto 6 well plates (1×10^5 cells/well in 1 ml HKS). After a 2h incubation at 37° C. in a cell incubator, cells were washed with PBS, and growth medium (minimal essential medium with Earle's salts and non-essential amino acids, adjusted to contain 2 mM L-glutamine, 1.5 g/L Na bicarbonate, 1.0 mM Na pyruvate and 10% fetal bovine serum) was added to plates.

[3] = target: T1, P2X7; assay: BzATP-induced YO-PRO-1 uptake in Neuro-2A cells by flow cytometry; conditions: 0.2 mM BzATP, FIG. 1 left panel
Protocol: ZFP/KOX-1-expressing cells were also assayed for P2X7 activity by measuring their ability to take up the DNA-binding dye YO-PRO-1, as follows. Seven days after the initial BzATP treatment, pools of clones containing 2-5×10^5 cells were incubated with 0.2 mM BzATP for 10 minutes in HKS Buffer (125 mM KCl, 1 mM EDTA, 5 mM glucose, 20 mM HEPES-KOH, pH 7.4). YO-PRO-1 (Molecular Probes, Inc., Eugene, Oreg.) was added to a final concentration of 5 μM. After an additional 25 min incubation in the presence of the dye, the cells were washed with PBS, collected by centrifugation, resuspended in PBS, and analyzed by FACS on a Beckman-Coulter EPICS XL flow cytometer.

EtBr accumulation at higher concentrations of BzATP ([1]; BzATP above 0.04 mM, range tested up to 1 mM): induced significant accumulation of EtBr
YO-PRO-1 uptake by control uninfected cells in the presence of BzATP [3]: substantial amounts of YO-PRO-1
Substance: benzoylbenzoyl ATP [BzATP]
EtBr uptake at low concentrations of BzATP ([1]; BzATP up to 0.04 mM): did not induce significant uptake of EtBr
cell death at relatively low concentrations of BzATP ([2]; BzATP >20 μM, cells transfected with either empty vector or the ZFP-KOX construct): some death of cells
survival of cells transfected with empty vector ([2]; BzATP concentrations >100 μM): almost no survival
